# Results as given in patent publication US12319676B2, “Substituted amide compounds useful as farnesoid X receptor modulators” (BRISTOL-MYERS SQUIBB COMPANY, priority 2019, dated 2025).
# Target: T1, human FXR (Homo sapiens, UniProt Q96RI1)
# T1 construct: expressed in transfected cells; host or cells: HEK293 cells stably carrying a 5xGal4 response element-luciferase reporter, transiently transfected with pcDNA3.1-Gal4-FXR
# T1 sequence (Q96RI1 262-486 limits assumed): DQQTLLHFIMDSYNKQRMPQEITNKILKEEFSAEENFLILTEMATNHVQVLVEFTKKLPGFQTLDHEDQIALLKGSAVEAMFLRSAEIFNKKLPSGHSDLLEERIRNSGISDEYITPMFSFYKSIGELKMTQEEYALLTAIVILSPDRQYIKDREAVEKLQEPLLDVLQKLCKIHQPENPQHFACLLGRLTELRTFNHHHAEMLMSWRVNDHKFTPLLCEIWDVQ
# Experiment: transient human FXR/Gal4-luciferase reporter assay
# Assay type: cell-based
# Conditions: Gal4-hFXR fusion construct, luciferase reporter in HEK293 cells; overnight incubation; response as percentage of 8 μM GW-4064 control
# How it was run: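 HEK293 cells stably carrying a 5×Gal4-response-element firefly luciferase reporter were transiently transfected with a Gal4 DBD-human FXR LBD fusion, then treated overnight with compounds at 37 °C. Steady-Glo luminescence, minus DMSO background, was expressed as percent of the response to 8 μM GW-4064.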
smiles,measurement,value
"CC(C)(C#N)Oc1ccc(Nc2cccc(N(CC34CCC(c5ccc(C(C)(F)F)cn5)(CC3)CC4)C(=O)[C@H]3C[C@](O)(C(F)(F)F)C3)c2)cc1 [Example 92, (1S,3S)—N-(3-((4-((2-cyanopropan-2-yl)oxy)phenyl)amino)phenyl)-N-((4-(5-(1,1-difluoroethyl)pyridin-2-yl)bicyclo[2.2.2]octan-1-yl)methyl)-3-hydroxy-3-(trifluoromethyl)cyclobutane-1-carboxamide]",EC50,2030 nM
"CC(F)(F)c1ccc(C23CCC(CN(c4cccc(Nc5ccc(C6(C#N)CC6)cc5)c4)C(=O)[C@H]4C[C@](O)(C(F)(F)F)C4)(CC2)CC3)nc1 [Example 93, (1S,3S)—N-(3-((4-(1-cyanocyclopropyl)phenyl)amino)phenyl)-N-((4-(5-(1,1-difluoroethyl)pyridin-2-yl)bicyclo[2.2.2]octan-1-yl)methyl)-3-hydroxy-3-(trifluoromethyl)cyclobutane-1-carboxamide]",EC50,1420 nM
"CC(C)(C)c1noc(C23CCC(CN(C(=O)C45CC(F)(C4)C5)c4cncc(C#N)c4)(CC2)CC3)n1 [Example 94, N-((4-(3-(tert-butyl)-1,2,4-oxadiazol-5-yl)bicyclo[2.2.2]octan-1-yl)methyl)-N-(5-cyanopyridin-3-yl)-3-fluorobicyclo[1.1.1]pentane-1-carboxamide]",EC50,1320 nM
"CC(C)(F)c1nc(C23CCC(CN(C(=O)N[C@H]4CC[C@](C)(O)CC4)c4cccc(C#N)c4)(CC2)CC3)no1 [Example 95, 1-(3-cyanophenyl)-1-((4-(5-(2-fluoropropan-2-yl)-1,2,4-oxadiazol-3-yl)bicyclo[2.2.2]octan-1-yl)methyl)-3-((1R,4R)-4-hydroxy-4-methylcyclohexyl)urea]",EC50,181 nM
"CC(C)(CO)CNC(=O)N(CC12CCC(c3noc(C(C)(C)F)n3)(CC1)CC2)c1cccc(C#N)c1 [Example 97, 1-(3-cyanophenyl)-1-((4-(5-(2-fluoropropan-2-yl)-1,2,4-oxadiazol-3-yl)bicyclo[2.2.2]octan-1-yl)methyl)-3-(3-hydroxy-2,2-dimethylpropyl)urea]",EC50,1000 nM
"CC(F)(F)c1nc(C23CCC(CN(C(=O)N[C@H]4CC[C@H](O)CC4)c4cccc(C#N)c4)(CC2)CC3)no1 [Example 98, 1-(3-cyanophenyl)-1-((4-(5-(1,1-difluoroethyl)-1,2,4-oxadiazol-3-yl)bicyclo[2.2.2]octan-1-yl)methyl)-3-((1R,4R)-4-hydroxycyclohexyl)urea]",EC50,230 nM
"CC(F)(F)c1nc(C23CCC(CN(C(=O)N[C@H]4CC[C@](C)(O)CC4)c4cccc(C#N)c4)(CC2)CC3)no1 [Example 99, 1-(3-cyanophenyl)-1-((4-(5-(1,1-difluoroethyl)-1,2,4-oxadiazol-3-yl)bicyclo[2.2.2]octan-1-yl)methyl)-3-((1R,4R)-4-hydroxy-4-methylcyclohexyl)urea]",EC50,391 nM
"CC(C)(CO)CNC(=O)N(CC12CCC(c3noc(C(C)(F)F)n3)(CC1)CC2)c1cccc(C#N)c1 [Example 100, 1-(3-cyanophenyl)-1-((4-(5-(1,1-difluoroethyl)-1,2,4-oxadiazol-3-yl)bicyclo[2.2.2]octan-1-yl)methyl)-3-(3-hydroxy-2,2-dimethylpropyl)urea]",EC50,1480 nM
"CC(C)(F)c1nc(C23CCC(CN(C(=O)N[C@H]4CC[C@H](O)CC4)c4ccc(F)c(Br)c4)(CC2)CC3)no1 [Example 101, 1-(3-bromo-4-fluorophenyl)-1-((4-(5-(2-fluoropropan-2-yl)-1,2,4-oxadiazol-3-yl)bicyclo[2.2.2]octan-1-yl)methyl)-3-((1R,4R)-4-hydroxycyclohexyl)urea]",EC50,1520 nM
"CC(C)(C)c1nc(C23CCC(CN(C(=O)C45CC(F)(C4)C5)c4cccc(Nc5ncc(OC(F)F)cn5)c4)(CC2)CC3)no1 [Example 102, N-((4-(5-(tert-butyl)-1,2,4-oxadiazol-3-yl)bicyclo[2.2.2]octan-1-yl)methyl)-N-(3-((5-(difluoromethoxy)pyrimidin-2-yl)amino)phenyl)-3-fluorobicyclo[1.1.1]pentane-1-carboxamide]",EC50,183 nM
"CC(C)(C)c1nc(C23CCC(CN(C(=O)C45CC(F)(C4)C5)c4cccc(Nc5cnc(C6CC6)nc5)c4)(CC2)CC3)no1 [Example 103, N-((4-(5-(tert-butyl)-1,2,4-oxadiazol-3-yl)bicyclo[2.2.2]octan-1-yl)methyl)-N-(3-((2-cyclopropylpyrimidin-5-yl)amino)phenyl)-3-fluorobicyclo[1.1.1]pentane-1-carboxamide]",EC50,187 nM
"CC(C)(C)c1nc(C23CCC(CN(C(=O)C45CC(F)(C4)C5)c4cccc(Nc5ccc(OC(F)F)cn5)c4)(CC2)CC3)no1 [Example 104, N-((4-(5-(tert-butyl)-1,2,4-oxadiazol-3-yl)bicyclo[2.2.2]octan-1-yl)methyl)-N-(3-((5-(difluoromethoxy)pyridin-2-yl)amino)phenyl)-3-fluorobicyclo[1.1.1]pentane-1-carboxamide]",EC50,221 nM
"O=C(N(CC12CCC(c3ccc(C(F)(F)F)cn3)(CC1)CC2)c1cccc(Nc2ncc(C3CC3)cn2)c1)C12CC(F)(C1)C2 [Example 105, N-(3-((5-cyclopropylpyrimidin-2-yl)amino)phenyl)-3-fluoro-N-((4-(5-(trifluoromethyl)pyridin-2-yl)bicyclo[2.2.2]octan-1-yl)methyl)bicyclo[1.1.1]pentane-1-carboxamide]",EC50,292 nM
"O=C(N(CC12CCC(c3ccc(C(F)(F)F)cn3)(CC1)CC2)c1cccc(Nc2ncc(OC(F)F)cn2)c1)C12CC(F)(C1)C2 [Example 106, N-(3-((5-(difluoromethoxy)pyrimidin-2-yl)amino)phenyl)-3-fluoro-N-((4-(5-(trifluoromethyl)pyridin-2-yl)bicyclo[.2.2.2]octan-1-yl)methyl)bicyclo[1.1.1]pentane-1-carboxamide]",EC50,132 nM
"O=C(N(CC12CCC(c3ccc(C(F)(F)F)cn3)(CC1)CC2)c1cccc(Nc2ccc(OC(F)F)cc2)c1)C12CC(F)(C1)C2 [Example 107, N-(3-((4-(difluoromethoxy)phenyl)amino)phenyl)-3-fluoro-N-((4-(5-(trifluoromethyl)pyridin-2-yl)bicyclo[2.2.2]octan-1-yl)methyl)bicyclo[1.1.1]pentane-1-carboxamide]",EC50,484 nM
"O=C(N(CC12CCC(c3ccc(C(F)(F)F)cn3)(CC1)CC2)c1cccc(Nc2ccc(OC(F)F)cn2)c1)C12CC(F)(C1)C2 [Example 108, N-(3-((5-(difluoromethoxy)pyridin-2-yl)amino)phenyl)-3-fluoro-N-((4-(5-(trifluoromethyl)pyridin-2-yl)bicyclo[2.2.2]octan-1-yl)methyl)bicyclo[1.1.1]pentane-1-carboxamide]",EC50,629 nM
"O=C(N(CC12CCC(c3ccc(C(F)(F)F)cn3)(CC1)CC2)c1cccc(Nc2ccc(C3CC3)cn2)c1)C12CC(F)(C1)C2 [Example 109, N-(3-((5-cyclopropylpyridin-2-yl)amino)phenyl)-3-fluoro-N-((4-(5-(trifluoromethyl)pyridin-2-yl)bicyclo[2..2.2]octan-1-yl)methyl)bicyclo[1.1.1]pentane-1-carboxamide]",EC50,292 nM
"CC(C)(C)c1nc(C23CCC(CN(C(=O)C45CC(F)(C4)C5)c4cccc(O)c4)(CC2)CC3)no1 [Example 110, N-((4-(5-(tert-butyl)-1,2,4-oxadiazol-3-yl)bicyclo[2.2.2]octan-1-yl)methyl)-3-fluoro-N-(3-hydroxyphenyl)bicyclo[1.1.1]pentane-1-carboxamide]",EC50,65 nM
"CC(C)(C)c1nc(C23CCC(CN(C(=O)C45CC(F)(C4)C5)c4cccc(OCC#N)c4)(CC2)CC3)no1 [Example 111, N-((4-(5-(tert-butyl)-1,2,4-oxadiazol-3-yl)bicyclo[2.2.2]octan-1-yl)methyl)-N-(3-(cyanomethoxy)phenyl)-3-fluorobicyclo[1.1.1]pentane-1-carboxamide]",EC50,618 nM
"CC(C)(O)COc1cccc(N(CC23CCC(c4noc(C(C)(C)C)n4)(CC2)CC3)C(=O)C23CC(F)(C2)C3)c1 [Example 112, N-((4-(5-(tert-butyl)-1,2,4-oxadiazol-3-yl)bicyclo[2.2.2]octan-1-yl)methyl)-3-fluoro-N-(3-(2-hydroxy-2-methylpropoxy)phenyl)bicyclo[1.1.1]pentane-1-carboxamide]",EC50,63 nM
"CC(C)(Oc1cccc(N(CC23CCC(c4noc(C(C)(C)C)n4)(CC2)CC3)C(=O)C23CC(F)(C2)C3)c1)C(=O)O [Example 113, 2-(3-(N-((4-(5-(tert-butyl)-1,2,4-oxadiazol-3-yl)bicyclo[2.2.2]octan-1-yl)methyl)-3-fluorobicyclo[1.1.1]pentane-1-carboxamido)phenoxy)-2-methylpropanoic acid]",EC50,2000 nM
"N#Cc1cccc(N(CC23CCC(c4noc(C(F)(F)F)n4)(CC2)CC3)C(=O)C23CC(F)(C2)C3)c1 [Example 114, N-(3-cyanophenyl)-3-fluoro-N-((4-(5-(trifluoromethyl)-1,2,4-oxadiazol-3-yl)bicyclo[2.2.2]octan-1-yl)methyl)bicyclo[1.1.1]pentane-1-carboxamide]",EC50,80 nM
"N#Cc1cccc(N(CC23CCC(c4noc(C(F)(F)F)n4)(CC2)CC3)C(=O)[C@H]2C[C@](O)(C(F)(F)F)C2)c1 [Example 115, (1S,3S)-N-(3-cyanophenyl)-3-hydroxy-3-(trifluoromethyl)-N-((4-(5-(trifluoromethyl)-1,2,4-oxadiazol-3-yl)bicyclo[2.2.2]octan-1-yl)methyl)cyclobutane-1-carboxamide]",EC50,436 nM
